Results taken from patent US20130345145A1, “ATIP3 AND BIOLOGICALLY ACTIVE FRAGMENTS THEREOF FOR USE IN THE TREATMENT OF CANCER” (INSTITUT NATIONAL DE LA SANTE ET DE LA RECHERCHE MEDICALE …, priority 2011, published 2013).
Where no end group is shown, it is not given here.

Legend:
[1] = test system: MCF7 breast cancer cells; assay: Xcelligence cell proliferation of stable MCF7 clones; assay type: cell-based; settings: clone D2CC3, MCF7, FIG. 13
Experimental: Stable clones of MCF7 breast cancer cells expressing moderate levels of GFP-D2N (clones D2N6 and D2N8), GFP-D2C (clone D2C6 and a pool of positive cells) and GFP-D2CC (clone Cl3) have been selected in G418 (1 mg/ml)-containing medium for 4 weeks. Detectable expression of a single polypeptide of expected molecular weight in each case was confirmed by western blotting using anti-GFP antibodies.
Cell proliferation was measured using the Xcelligence technology (Roche). Briefly, cell clones were seeded at 15000 cells/well on 96 wells containing gold electrodes and cellular impedance was monitored in real-time for 40 hours.

[2] = test system: microtubule cytoskeleton; assay: Immunofluorescence intracellular localization in RPE1 cells; assay type: cell-based, Human; settings: RPE1 cells transfected 24 hrs, data not shown
Experimental: Immunofluorescence study was performed as example 2. Briefly, Human retinal pigment epithelial (RPE1) cells were transfected for 24 hrs with GFP-D2N, GFP-D2C or GFP-D2CC constructs prior to fixation in ice-cold methanol and incubation with anti-GFP antibodies as described (page 21, lines 1-9).

Substance: D2CC: domain of ATIP3BD, amino-acid positions 817-874 of SEQ ID NO: 1, 58 amino-acids polypeptide, expressed as GFP fusion (SGNAAVIKYEEKPPKPAFQNGSSGSFYLKPLVSRAHVHLMKTPPKGPSRKNLFTALNA; also: expressed as GFP fusion; listed as Homo sapiens)
- factor of reduction of proliferation as compared to clone expressing GFP-ATIP3 [1]: 2
- intracellular localization [2]: remains diffuse in the cytosol
